This is an account of results in ChEMBL document CHEMBL4507263, “Data for DCP probe BAY-474” (2021).

The target in assay [1] is Calcium/calmodulin-dependent protein kinase type II subunit delta (Homo sapiens) (UniProt Q13557). The assay can be described thus: CaMKIIdelta (h) Millipore kinase activity assay. As to conditions: Compound concentration 1.0 uM.
Assay [2] has as its target Serine/threonine-protein kinase Chk2 (Homo sapiens) (UniProt O96017). The assay can be described thus: CHK2 (h) Millipore kinase activity assay. As to conditions: Compound concentration 1.0 uM.
For assay [3], the target named is Casein kinase I isoform gamma-1 (Homo sapiens) (UniProt Q9HCP0). In words: CK1gamma1 (h) Millipore kinase activity assay. The note with it: Compound concentration 1.0 uM.
Assay [4] deals with Tyrosine-protein kinase Fgr (Homo sapiens) (UniProt P09769). The assay can be described thus: Fgr (h) Millipore kinase activity assay. As to conditions: Compound concentration 1.0 uM.
The target in assay [5] is Tyrosine-protein kinase JAK3 (Homo sapiens) (UniProt P52333). The assay can be described thus: JAK3 (h) Millipore kinase activity assay. As to conditions: Compound concentration 1.0 uM.
In assay [6] the target is Tyrosine-protein kinase Lyn (Homo sapiens) (UniProt P07948). The assay can be described thus: Lyn (h) Millipore kinase activity assay. The note with it: Compound concentration 1.0 uM.
Assay [7] has as its target MAP kinase-activated protein kinase 2 (Homo sapiens) (UniProt P49137). The assay can be described thus: MAPKAP-K2 (h) Millipore kinase activity assay. As to conditions: Compound concentration 1.0 uM.
Assay [8] addresses Tyrosine-protein kinase FRK (Homo sapiens) (UniProt P42685). In words: PTK5 (h) Millipore kinase activity assay. As to conditions: Compound concentration 1.0 uM.
Assay [9] deals with Receptor-interacting serine/threonine-protein kinase 2 (Homo sapiens) (UniProt O43353). In words: RIPK2 (h) Millipore kinase activity assay. The note with it: Compound concentration 1.0 uM.
For assay [10], the target named is Tyrosine-protein kinase receptor TYRO3 (Homo sapiens) (UniProt Q06418). The assay can be described thus: Rse (h) Millipore kinase activity assay. The note with it: Compound concentration 1.0 uM.
Assay [11] addresses Testis-specific serine/threonine-protein kinase 2 (Homo sapiens) (UniProt Q96PF2). In words: TSSK2 (h) Millipore kinase activity assay. As to conditions: Compound concentration 1.0 uM.
Assay [12] deals with T1, D(4) dopamine receptor (Homo sapiens) (UniProt P21917).
T1 sequence (whole entry): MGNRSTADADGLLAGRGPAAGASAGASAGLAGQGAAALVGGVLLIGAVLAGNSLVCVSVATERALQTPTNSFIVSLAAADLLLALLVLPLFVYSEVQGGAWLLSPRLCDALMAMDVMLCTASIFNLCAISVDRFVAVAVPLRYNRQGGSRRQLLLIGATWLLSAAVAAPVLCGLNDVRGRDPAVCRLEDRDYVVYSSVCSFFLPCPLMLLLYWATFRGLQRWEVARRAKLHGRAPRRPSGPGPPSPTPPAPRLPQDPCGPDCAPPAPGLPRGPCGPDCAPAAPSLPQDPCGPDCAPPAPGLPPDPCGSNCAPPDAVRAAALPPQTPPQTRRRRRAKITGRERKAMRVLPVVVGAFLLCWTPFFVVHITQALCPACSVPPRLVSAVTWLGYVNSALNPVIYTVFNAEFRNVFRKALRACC
In words: Inhibition of Dopamine D4.2 at 10 µM in the Eurofins-Panlabs radioligand binding assay (Eurofins_assay_219900). More on the design: ligand concentration 0.5 nM. The note with it: Compound concentration 10.0 uM.

Assay [13] deals with Glucocorticoid receptor (Homo sapiens) (UniProt P04150). The assay can be described thus: Glucocorticoid Eurofins-Panlabs radioligand binding assay. As to conditions: Compound concentration 10.0 uM.
Assay [14] concerns the target Acetylcholine receptor subunit alpha (Homo sapiens) (UniProt P02708). In words: Inhibition of Nicotinic Acetylcholine D1, Bungarotoxin at 10 µM in the Eurofins-Panlabs radioligand binding assay (Eurofins_assay_258700). As to conditions: Compound concentration 10.0 uM.
The target in assay [15] is B2 bradykinin receptor (Homo sapiens) (UniProt P30411). As to conditions: Compound concentration 10.0 uM.
Assay [16] addresses D(2) dopamine receptor (Homo sapiens) (UniProt P14416). The note with it: Compound concentration 10.0 uM.
The target of assay [17] is Histamine H3 receptor (Homo sapiens) (UniProt Q9Y5N1). The note with it: Compound concentration 10.0 uM.
Assay [18] has as its target RAC-beta serine/threonine-protein kinase (Homo sapiens) (UniProt P31751). As to conditions: Compound concentration 1000.0 nM.
The target of assay [19] is ALK tyrosine kinase receptor (Homo sapiens) (UniProt Q9UM73). The note with it: Compound concentration 1000.0 nM.
For assay [20], the target named is Calcium/calmodulin-dependent protein kinase type II subunit alpha (Homo sapiens) (UniProt Q9UQM7). The note with it: Compound concentration 1000.0 nM.
Assay [21] deals with Calcium/calmodulin-dependent protein kinase type II subunit beta (Homo sapiens) (UniProt Q13554). As to conditions: Compound concentration 1000.0 nM.
Assay [22] deals with Cyclin-dependent kinase 11B (Homo sapiens) (UniProt P21127). The note with it: Compound concentration 1000.0 nM.
In assay [23] the target is Cyclin-dependent kinase 4 (Homo sapiens) (UniProt P11802). As to conditions: Compound concentration 1000.0 nM.
In assay [24] the target is Cyclin-dependent kinase-like 2 (Homo sapiens) (UniProt Q92772). As to conditions: Compound concentration 1000.0 nM.
In assay [25] the target is Casein kinase II subunit alpha' (Homo sapiens) (UniProt P19784). The note with it: Compound concentration 1000.0 nM.
Assay [26] deals with Epidermal growth factor receptor (Homo sapiens), P00533 [UNDEFINED MUTATION]. As to conditions: Compound concentration 1000.0 nM.
Assay [27] has the same test system. As to conditions: Compound concentration 1000.0 nM. This is another data set of the same source.
Assay [28] deals with Mitogen-activated protein kinase 9 (Homo sapiens) (UniProt P45984). The note with it: Compound concentration 1000.0 nM.
Assay [29] has as its target Dual specificity mitogen-activated protein kinase kinase 5 (Homo sapiens) (UniProt Q13163). As to conditions: Compound concentration 1000.0 nM.
Assay [30] concerns the target Serine/threonine-protein kinase 26 (Homo sapiens) (UniProt Q9P289). The note with it: Compound concentration 1000.0 nM.
For assay [31], the target named is Serine/threonine-protein kinase mTOR (Homo sapiens) (UniProt P42345). As to conditions: Compound concentration 1000.0 nM.
The target of assay [32] is Serine/threonine-protein kinase Nek10 (Homo sapiens) (UniProt Q6ZWH5). The note with it: Compound concentration 1000.0 nM.
The target of assay [33] is Serine/threonine-protein kinase Nek4 (Homo sapiens) (UniProt P51957). The note with it: Compound concentration 1000.0 nM.
Assay [34] addresses Serine/threonine-protein kinase Nek5 (Homo sapiens) (UniProt Q6P3R8). The note with it: Compound concentration 1000.0 nM.
Assay [35] concerns the target Phosphatidylinositol 4,5-bisphosphate 3-kinase catalytic subunit gamma isoform (Homo sapiens) (UniProt P48736). As to conditions: Compound concentration 1000.0 nM.
The target of assay [36] is cAMP-dependent protein kinase catalytic subunit PRKX (Homo sapiens) (UniProt P51817). As to conditions: Compound concentration 1000.0 nM.
Assay [37] deals with Serine/threonine-protein kinase PRP4 homolog (Homo sapiens) (UniProt Q13523). As to conditions: Compound concentration 1000.0 nM.
Assay [38] concerns the target Receptor-interacting serine/threonine-protein kinase 2 (Homo sapiens) (UniProt O43353). As to conditions: Compound concentration 1000.0 nM.
Assay [39] deals with Non-receptor tyrosine-protein kinase TYK2 (Homo sapiens) (UniProt P29597). The note with it: Compound concentration 1000.0 nM.

Chain of Receptor-interacting serine/threonine-protein kinase 2 (Homo sapiens) (O43353 whole entry): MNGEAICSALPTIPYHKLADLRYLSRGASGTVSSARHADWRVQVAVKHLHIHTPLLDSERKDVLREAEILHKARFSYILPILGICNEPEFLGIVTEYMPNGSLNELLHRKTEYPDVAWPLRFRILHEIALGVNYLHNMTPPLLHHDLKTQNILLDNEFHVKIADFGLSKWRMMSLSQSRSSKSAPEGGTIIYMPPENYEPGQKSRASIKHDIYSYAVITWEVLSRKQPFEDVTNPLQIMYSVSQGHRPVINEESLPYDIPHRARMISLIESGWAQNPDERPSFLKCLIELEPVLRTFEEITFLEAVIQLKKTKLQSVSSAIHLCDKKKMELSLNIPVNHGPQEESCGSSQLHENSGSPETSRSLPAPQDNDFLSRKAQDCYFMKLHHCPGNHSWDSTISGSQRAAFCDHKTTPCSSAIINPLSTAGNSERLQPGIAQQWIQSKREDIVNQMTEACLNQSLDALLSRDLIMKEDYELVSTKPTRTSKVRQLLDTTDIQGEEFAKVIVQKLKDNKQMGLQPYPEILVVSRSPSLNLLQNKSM
Chain of Epidermal growth factor receptor (Homo sapiens), P00533 [UNDEFINED MUTATION] (P00533 whole entry, looked up, change not shown): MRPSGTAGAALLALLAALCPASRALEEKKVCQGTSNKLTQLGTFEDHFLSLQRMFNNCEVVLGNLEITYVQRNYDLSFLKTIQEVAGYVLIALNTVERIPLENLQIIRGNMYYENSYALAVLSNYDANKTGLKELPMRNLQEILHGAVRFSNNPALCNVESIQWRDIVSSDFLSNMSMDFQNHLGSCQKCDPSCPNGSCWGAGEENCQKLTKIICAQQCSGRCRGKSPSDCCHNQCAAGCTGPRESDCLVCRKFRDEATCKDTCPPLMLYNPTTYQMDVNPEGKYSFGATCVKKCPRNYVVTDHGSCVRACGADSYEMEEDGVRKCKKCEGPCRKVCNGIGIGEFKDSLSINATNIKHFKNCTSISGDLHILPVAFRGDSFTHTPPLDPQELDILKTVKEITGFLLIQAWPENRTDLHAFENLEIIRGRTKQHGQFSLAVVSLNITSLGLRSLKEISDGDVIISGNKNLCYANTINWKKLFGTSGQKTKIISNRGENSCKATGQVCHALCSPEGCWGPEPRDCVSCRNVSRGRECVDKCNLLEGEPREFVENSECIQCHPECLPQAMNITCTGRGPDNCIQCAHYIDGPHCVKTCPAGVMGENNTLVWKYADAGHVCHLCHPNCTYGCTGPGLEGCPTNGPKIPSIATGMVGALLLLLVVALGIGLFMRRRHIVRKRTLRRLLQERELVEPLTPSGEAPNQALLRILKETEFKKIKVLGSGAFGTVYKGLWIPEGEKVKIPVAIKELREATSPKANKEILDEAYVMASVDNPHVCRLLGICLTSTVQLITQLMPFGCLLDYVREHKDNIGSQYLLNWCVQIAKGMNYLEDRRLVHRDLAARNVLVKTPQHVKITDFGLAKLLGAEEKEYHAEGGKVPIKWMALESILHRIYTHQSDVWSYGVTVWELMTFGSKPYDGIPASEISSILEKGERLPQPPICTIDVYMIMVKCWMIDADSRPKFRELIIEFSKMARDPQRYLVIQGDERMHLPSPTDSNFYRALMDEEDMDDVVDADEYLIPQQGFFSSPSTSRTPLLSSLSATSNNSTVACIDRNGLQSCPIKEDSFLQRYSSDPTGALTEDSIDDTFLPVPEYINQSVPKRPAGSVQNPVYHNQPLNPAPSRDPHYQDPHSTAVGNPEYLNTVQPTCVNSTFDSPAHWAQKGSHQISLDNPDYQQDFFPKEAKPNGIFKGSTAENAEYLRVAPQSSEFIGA
Chain of Mitogen-activated protein kinase 9 (Homo sapiens) (P45984 whole entry, looked up): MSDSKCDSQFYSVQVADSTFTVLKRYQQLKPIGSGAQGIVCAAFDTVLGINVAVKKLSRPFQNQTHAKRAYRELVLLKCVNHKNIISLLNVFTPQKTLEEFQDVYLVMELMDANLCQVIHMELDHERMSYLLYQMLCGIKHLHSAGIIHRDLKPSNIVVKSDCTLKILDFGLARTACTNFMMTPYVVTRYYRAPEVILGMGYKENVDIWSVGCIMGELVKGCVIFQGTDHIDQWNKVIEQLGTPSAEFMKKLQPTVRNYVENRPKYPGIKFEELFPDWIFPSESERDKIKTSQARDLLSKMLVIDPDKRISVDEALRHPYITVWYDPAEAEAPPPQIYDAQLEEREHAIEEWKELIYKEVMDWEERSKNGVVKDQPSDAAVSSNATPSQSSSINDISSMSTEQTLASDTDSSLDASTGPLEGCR
Chain of Serine/threonine-protein kinase Nek4 (Homo sapiens) (P51957 whole entry, looked up): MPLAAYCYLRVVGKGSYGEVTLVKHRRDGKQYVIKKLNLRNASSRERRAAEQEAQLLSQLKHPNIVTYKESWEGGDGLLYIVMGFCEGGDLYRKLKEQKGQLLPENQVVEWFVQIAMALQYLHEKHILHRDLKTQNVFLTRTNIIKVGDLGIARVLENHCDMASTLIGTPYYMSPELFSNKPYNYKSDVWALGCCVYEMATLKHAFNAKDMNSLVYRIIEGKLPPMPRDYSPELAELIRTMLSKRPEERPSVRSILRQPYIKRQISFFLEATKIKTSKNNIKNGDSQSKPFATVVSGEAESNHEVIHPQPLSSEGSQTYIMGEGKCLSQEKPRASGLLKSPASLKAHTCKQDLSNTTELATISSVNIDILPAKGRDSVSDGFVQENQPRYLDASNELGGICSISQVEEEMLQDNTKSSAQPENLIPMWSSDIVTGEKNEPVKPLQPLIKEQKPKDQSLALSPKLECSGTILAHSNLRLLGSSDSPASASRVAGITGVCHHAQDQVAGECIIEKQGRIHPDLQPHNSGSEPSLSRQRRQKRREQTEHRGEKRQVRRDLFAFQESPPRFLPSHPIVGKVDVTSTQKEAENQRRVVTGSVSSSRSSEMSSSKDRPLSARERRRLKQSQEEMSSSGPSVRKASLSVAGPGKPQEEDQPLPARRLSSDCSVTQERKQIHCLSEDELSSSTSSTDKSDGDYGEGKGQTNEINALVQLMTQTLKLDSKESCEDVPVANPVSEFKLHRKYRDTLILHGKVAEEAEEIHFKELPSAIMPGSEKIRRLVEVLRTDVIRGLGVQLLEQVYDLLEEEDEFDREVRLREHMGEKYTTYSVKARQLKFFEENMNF
Chain of MAP kinase-activated protein kinase 2 (Homo sapiens) (P49137 whole entry, looked up): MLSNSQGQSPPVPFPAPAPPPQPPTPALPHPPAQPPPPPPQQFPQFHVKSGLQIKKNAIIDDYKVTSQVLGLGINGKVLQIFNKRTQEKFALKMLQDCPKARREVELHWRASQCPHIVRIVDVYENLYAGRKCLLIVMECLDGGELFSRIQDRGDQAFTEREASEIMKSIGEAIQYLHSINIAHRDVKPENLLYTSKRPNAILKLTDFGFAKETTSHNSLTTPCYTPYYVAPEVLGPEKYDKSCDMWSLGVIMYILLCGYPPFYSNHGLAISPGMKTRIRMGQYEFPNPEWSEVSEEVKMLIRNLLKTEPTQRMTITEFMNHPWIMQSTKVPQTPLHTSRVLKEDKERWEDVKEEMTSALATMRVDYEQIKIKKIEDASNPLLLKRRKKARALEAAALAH
Chain of Cyclin-dependent kinase 4 (Homo sapiens) (P11802 whole entry): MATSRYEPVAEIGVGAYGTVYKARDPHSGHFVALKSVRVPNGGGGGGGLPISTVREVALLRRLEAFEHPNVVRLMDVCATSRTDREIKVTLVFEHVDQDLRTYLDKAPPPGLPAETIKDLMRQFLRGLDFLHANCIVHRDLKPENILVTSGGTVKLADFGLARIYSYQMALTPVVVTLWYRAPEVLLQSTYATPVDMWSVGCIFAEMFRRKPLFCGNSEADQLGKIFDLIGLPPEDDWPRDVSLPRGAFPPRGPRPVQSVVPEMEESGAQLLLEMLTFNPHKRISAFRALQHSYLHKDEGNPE
Chain of Cyclin-dependent kinase-like 2 (Homo sapiens) (Q92772 whole entry): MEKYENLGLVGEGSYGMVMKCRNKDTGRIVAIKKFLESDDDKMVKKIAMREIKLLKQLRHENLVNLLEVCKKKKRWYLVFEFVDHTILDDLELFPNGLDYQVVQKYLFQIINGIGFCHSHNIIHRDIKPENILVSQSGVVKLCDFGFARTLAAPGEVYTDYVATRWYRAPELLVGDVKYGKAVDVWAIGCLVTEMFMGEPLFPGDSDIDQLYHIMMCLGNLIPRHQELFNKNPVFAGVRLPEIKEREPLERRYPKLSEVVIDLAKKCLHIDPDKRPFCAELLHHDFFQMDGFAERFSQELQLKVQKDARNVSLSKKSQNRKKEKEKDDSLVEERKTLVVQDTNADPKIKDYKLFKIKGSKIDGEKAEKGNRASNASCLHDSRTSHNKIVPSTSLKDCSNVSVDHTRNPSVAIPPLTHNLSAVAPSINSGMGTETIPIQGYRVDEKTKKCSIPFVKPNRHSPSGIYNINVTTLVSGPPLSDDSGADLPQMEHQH
Chain of Calcium/calmodulin-dependent protein kinase type II subunit alpha (Homo sapiens) (Q9UQM7 whole entry): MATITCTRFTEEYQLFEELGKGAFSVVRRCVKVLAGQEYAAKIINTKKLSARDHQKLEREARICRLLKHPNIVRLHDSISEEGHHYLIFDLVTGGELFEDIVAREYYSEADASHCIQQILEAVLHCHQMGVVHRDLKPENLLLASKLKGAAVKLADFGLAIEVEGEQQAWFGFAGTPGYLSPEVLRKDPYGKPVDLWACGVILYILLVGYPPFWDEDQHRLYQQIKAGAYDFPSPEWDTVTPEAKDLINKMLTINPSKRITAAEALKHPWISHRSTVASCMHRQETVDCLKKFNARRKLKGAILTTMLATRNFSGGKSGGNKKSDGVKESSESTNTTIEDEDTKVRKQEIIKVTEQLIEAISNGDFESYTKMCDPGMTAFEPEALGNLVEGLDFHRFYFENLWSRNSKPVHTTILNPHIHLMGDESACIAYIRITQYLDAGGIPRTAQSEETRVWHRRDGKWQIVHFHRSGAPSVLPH

Usually inhibition stands for the relative decrease from the control value, in per cent. On to `CC1=C(C#N)C(c2ccc3[nH]nc(C)c3c2)C(C#N)=C(C)N1` [BAY-474], for which the inhibition in assay [1] is 3%; in assay [2], 4%; in [3], -9%; in assay [4] it was 14%; in [5], -7%; in [6] it was -1%. For the same molecule, the inhibition in assay [7] is -2%; in assay [8] it was 2%; in assay [9] it was 5%; in assay [10] it was 28%; in assay [11], -3%; in assay [12], -2%. Further, the inhibition in [13] was 12%; in assay [14], 0%; in [15], -10%; in assay [16] it was 2%; in [17], -6%.

For `CC1=C(C#N)[C@@H](c2ccc3[nH]nc(C)c3c2)C(C#N)=C(c2ccc(Cl)cc2)N1` [BAY-827], the residual activity in assay [18] was 100%; in assay [19], 84.7%; in assay [20], 100%; in assay [21] it was 100%; in [22] it was 91.6%; in [23] it was 96.1%. The residual activity in [24] was 97.9%; in assay [25] it was 100%; in [26], 75.1%; in [27] it was 80.4%; in assay [28] it was 89.5%; in assay [29], 49.9%. Also, the residual activity in assay [30] was 100%; in assay [31] it was 79.6%; in assay [32] it was 59.6%; in [33] it was 90.1%; in assay [34], 80.3%; in assay [35] it was 100%. The residual activity in assay [36] is 100%; in [37], 100%; in [38], 92%; in assay [39] it was 73.1%.
